Biological target: epidermal growth factor receptor (EGFR) (Homo sapiens, UniProt P00533)
Assay: SPR
Assay type: binding

epidermal growth factor receptor (EGFR), sequence (P00533 25-1210): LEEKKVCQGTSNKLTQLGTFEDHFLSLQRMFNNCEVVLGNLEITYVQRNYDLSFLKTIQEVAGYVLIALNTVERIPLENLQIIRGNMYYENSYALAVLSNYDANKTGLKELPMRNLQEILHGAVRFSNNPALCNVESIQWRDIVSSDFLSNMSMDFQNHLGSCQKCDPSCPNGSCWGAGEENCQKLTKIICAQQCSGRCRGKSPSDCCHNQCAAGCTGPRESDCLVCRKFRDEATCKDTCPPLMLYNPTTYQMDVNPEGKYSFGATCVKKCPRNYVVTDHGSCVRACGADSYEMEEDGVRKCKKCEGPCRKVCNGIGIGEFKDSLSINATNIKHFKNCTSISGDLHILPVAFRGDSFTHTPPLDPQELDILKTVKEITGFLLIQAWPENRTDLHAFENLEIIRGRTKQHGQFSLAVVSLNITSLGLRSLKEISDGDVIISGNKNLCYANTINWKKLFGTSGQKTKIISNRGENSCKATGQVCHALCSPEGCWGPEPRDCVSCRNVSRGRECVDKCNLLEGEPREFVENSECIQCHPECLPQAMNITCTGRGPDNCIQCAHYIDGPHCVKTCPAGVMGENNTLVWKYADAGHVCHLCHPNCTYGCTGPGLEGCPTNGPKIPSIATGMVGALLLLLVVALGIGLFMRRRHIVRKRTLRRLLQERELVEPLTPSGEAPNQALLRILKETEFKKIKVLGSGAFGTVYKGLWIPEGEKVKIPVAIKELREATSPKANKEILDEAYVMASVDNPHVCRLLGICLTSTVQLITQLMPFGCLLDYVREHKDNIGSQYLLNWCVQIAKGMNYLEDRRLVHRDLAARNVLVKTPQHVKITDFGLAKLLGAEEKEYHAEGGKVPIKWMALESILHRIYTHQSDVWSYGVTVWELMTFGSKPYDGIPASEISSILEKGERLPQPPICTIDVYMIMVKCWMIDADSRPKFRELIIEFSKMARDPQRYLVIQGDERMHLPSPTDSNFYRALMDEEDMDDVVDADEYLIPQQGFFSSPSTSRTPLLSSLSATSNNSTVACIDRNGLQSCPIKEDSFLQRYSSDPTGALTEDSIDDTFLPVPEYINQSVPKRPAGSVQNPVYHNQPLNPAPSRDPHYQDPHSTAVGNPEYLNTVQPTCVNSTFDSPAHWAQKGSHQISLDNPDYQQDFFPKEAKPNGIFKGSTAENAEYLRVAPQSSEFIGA

`Clc1ccc(C2=NN(c3nc(C45CC6CC(CC(C6)C4)C5)cs3)C(c3ccccc3)C2)c(Cl)c1` (stereo not shown) [3e, 4-(adamantan-1-yl)-2-(3-(2,4-dichlorophenyl)-5-phenyl-4,5-dihydro-1H-pyrazol-1-yl)thiazole] showed a Kd of 11.8 ± 2.4 µM.

Reference: paper PMC6044684 (ACS Omega, 2016)
